Values quoted from earlier work, collected in patent publication US10744140B2, “Synergistic nutraceutical beverage formulations providing enhanced thermogenesis, mental clarity, and stamina while minimizing adrenaline and dopamine concentration perturbations associated with withdrawal” (Power Supplements, LLC., priority 2016, dated 2020).
Each block holds one compound with its values, some of them ahead of it.

Key:
rhesus monkey TAAR1 = target: T1, rhesus monkey TAAR1 (Macaca mulatta, UniProt Q8HZ64); conditions: HEK293 cells transfected with rhesus monkey TAAR1, CRE-Luc reporter
T1 construct: expressed in transfected cells; host or cells: HEK293 (transient, with CRE-Luc and pGL4.73 reporters)
T1 sequence (Q8HZ64 1-338): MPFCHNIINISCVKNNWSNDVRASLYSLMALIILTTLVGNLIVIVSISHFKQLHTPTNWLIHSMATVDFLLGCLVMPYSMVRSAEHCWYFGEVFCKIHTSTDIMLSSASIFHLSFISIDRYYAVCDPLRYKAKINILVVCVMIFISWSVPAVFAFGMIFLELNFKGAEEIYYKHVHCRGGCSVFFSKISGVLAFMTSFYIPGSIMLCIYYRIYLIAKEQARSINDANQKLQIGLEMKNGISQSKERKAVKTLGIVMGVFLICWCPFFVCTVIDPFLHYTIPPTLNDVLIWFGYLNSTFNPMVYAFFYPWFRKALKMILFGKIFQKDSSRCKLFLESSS

[1] = target: T2, rat trace amine receptor (rTAR1) (Rattus norvegicus, UniProt Q923Y9); conditions: 1 μM, HEK 293 cells
T2 construct: expressed in transfected cells; host or cells: HEK 293
T2 sequence (Q923Y9 whole entry): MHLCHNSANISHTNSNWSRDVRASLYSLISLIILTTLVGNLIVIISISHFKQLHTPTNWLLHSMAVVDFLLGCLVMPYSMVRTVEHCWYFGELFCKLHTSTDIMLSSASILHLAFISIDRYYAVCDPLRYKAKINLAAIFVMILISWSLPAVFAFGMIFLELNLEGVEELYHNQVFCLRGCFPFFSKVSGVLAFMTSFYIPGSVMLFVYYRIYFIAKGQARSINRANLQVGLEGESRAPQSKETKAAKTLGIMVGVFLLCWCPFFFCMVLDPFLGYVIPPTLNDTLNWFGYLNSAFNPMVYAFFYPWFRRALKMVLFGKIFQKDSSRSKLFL

young females = conditions: 50 mg, two months
primate brain = conditions: acute administration
humans = conditions: higher of two single doses (100 mg, 250 mg)
[2] = test system: DAT (dopamine transporter); conditions: cells expressing TAAR1 and DAT
[3] = test system: NET (norepinephrine transporter); conditions: cells expressing TAAR1 and NET
[4] = test system: SERT (serotonin transporter); conditions: cells expressing TAAR1 and SERT

TAAR1 activation (cAMP production) (rhesus monkey TAAR1): activates TAAR1
SMILES: NCC(O)c1ccc(O)cc1 (stereo not shown) [OCT, octopamine]

SMILES: NCCc1c[nH]c2ccccc12 [TRY, tryptamine]
TAAR1 activation (cAMP production) (rhesus monkey TAAR1): activates TAAR1

SMILES: CN(C)CCc1ccc(O)cc1 [hordenine, N,N-dimethyltyramine]
potency in stimulating cAMP production through the rTAR1 [1]: almost identical potency to that of the same concentration of β-phenethylamine
heart rate (horses; 2 mg/kg intravenous (IV)): doubled
increase of the rate of respiration (horses; 2 mg/kg intravenous (IV)): 250%
respiratory distress (horses; 2 mg/kg intravenous (IV)): substantial respiratory distress
time until all effects disappeared (horses; 2 mg/kg intravenous (IV)): ≤ 30 min
effects after oral dosing (horses; same dose (2 mg/kg) given orally): did not produce any of the effects seen after parenteral administration
blood pressure (dogs and rats): increased systolic and diastolic blood pressure
effect on the heart (strength of contraction) (dogs and rats): positive inotropic effect on the heart
movements of the gut (dogs and rats): inhibited
peripheral blood flow (dogs and rats): increased the volume of peripheral blood flow

SMILES: Cc1ncc(C[n+]2csc(CCO)c2C)c(N)n1 [thiamine]
attention (decision times in choice reaction time tasks) (young females): improved attention
mood (Profile of Mood States) (young females): improved mood

potency in stimulating cAMP production through the rTAR1 [1]: slightly higher than that of hordenine
TAAR1 activation (cAMP production) (rhesus monkey TAAR1): activates TAAR1
SMILES: NCCc1ccc(O)cc1 [tyramine]

SMILES: Cc1ncc(CO)c(CO)c1O [vitamin B6, pyridoxine]
serotonin synthesis in the brain (primate brain): increased serotonin synthesis
dream salience (humans): increase in dream salience

SMILES: NCCc1ccccc1 [β-PEA, 2-phenylethylamine]
TAAR1 activation (cAMP production) (rhesus monkey TAAR1): activates TAAR1
uptake of dopamine by its transporter [2]: reduces the uptake of the monoamines
uptake of norepinephrine by its transporter [3]: reduces the uptake of the monoamines
uptake of serotonin by its transporter [4]: reduces the uptake of the monoamines
